# Experimental data taken from patent US8618068B2, “Methods and low dose regimens for treating red blood cell disorders” (priority 2009, dated 2013).
# Marks after values point to notes of the source that are not given here.
# Tests used:
# [1] = test system: F-cells; assay: F-cells in Bfu-e erythroid progenitor cultures; format: cell-based
# [2] = test system: γ-globin mRNA; assay: γ-globin mRNA in anemic baboons given HU and DMB; format: in vivo; details: HU 3 days/week
# [3] = test system: fetal globin; details: cited from earlier work
# [4] = test system: β- and γ-globin gene promoters; assay: Double-luciferase reporter assay of γ-globin expression in GM979 cells; format: cell-based, murine
# Excerpt: DMB was compared to arginine butyrate (AB) for its ability to induce y-globin expression in a double-luciferase reporter assay in murine erythroleukemia (GM979) cells transfected with the pLCR linked to the β- and γ-globin gene promoters linked to a different luciferase gene.
# [5] = test system: micronucleated erythrocytes (PCEs); details: cited from earlier work
compound,measurement,setting,value
"Nc1ncn([C@H]2C[C@H](O)[C@@H](CO)O2)c(=O)n1 [decitabine, 5-aza-2′-deoxycytidine, reference compound]",F-cells increase above F-cell levels in control cultures,[1],66-104%
"NC(=O)NO [HU, hydroxyurea]",γ-globin mRNA increase above baseline,[2],80-120%
same,patients in whom clinical benefit is observed,[3]; SCD patients,40-50%
same,treatment required for optimal effects on HbF,[3]; at a level close to the maximum tolerated dose,6-9 months
Arginine butyrate [reference compound],Mean Fold Increase,"[4]; 0.5 mM, compared to untreated controls, p ≦ 0.01",1.8*
same,"γ/(γ + β) globin Expression, Range",[4]; Active Concentration 0.5 mM,0.029-0.047
O=P1(N(CCCl)CCCl)NCCCO1 (stereo not shown) [cyclophosphamide],"historical positive control values, mean±SD",[5],"19.2±15.5 MN PCEs/1,000 PCEs"
